Assay results as given in patent US20230087644A1, “Probe for Specifically Detecting Pathological Collagens, and Preparation Method Therefor and Use Thereof” (LANZHOU UNIVERSITY, priority 2020, published 2023).

How the values were obtained:
[1] = Fluorescence spectrogram of probe solutions after 85° C. water bath and 0° C. ice bath; assay type: physicochemical; conditions: 300 μM probe solution, excitation 497 nm, emission 500-700 nm
Protocol: Take the peptide probe GOP-10, GPP-10, GPO-10 and GOO-10, and prepare 300 μM probe solutions respectively; Keep above probe solutions in a water bath at 85° C. for 20 min, and measure the fluorescence spectrogram by a fluorescence spectrophotometer immediately. Place heated probe solution in the ice-water mixture at 0° C. for 12 h, and measure the fluorescence spectrogram by fluorescence spectrophotometer again; The excitation wavelength is 497 nm, and the scanning range of emission spectrum is 500-700 nm.

[2] = Colorimetric assay of peptide probe solutions (trimer vs single-stranded state); assay type: physicochemical; conditions: 300 μM probe solution; for conformational state (colour of solution) at 0° C.: 0° C. ice-water for 12 h after heating; for conformational state (colour of solution) after heating: 85° C. water bath 20 min
Protocol: Take the peptide probe GOP-10, GPP-10, GPO-10 and GOO-10, and prepare 300 μM probe solutions respectively; Keep above probe solutions in a water bath at 85° C. for 20 min, and collect picture data via a digital camera and observe the color of the solutions. Place heated probe solution in the ice-water mixture at 0° C. for 12 h, and then collect picture data via a digital camera again and observe the color of the solution.

[3] = Thermal stability test (fluorescence intensity at 525 nm, 0-95° C.); assay type: physicochemical; conditions: 15 μM probe in 10 mM phosphate buffer; for fluorescence intensity in the range of 0-95° C.: 525 nm, temperature gradient; for thermal transformation temperature: from derivative curves
Protocol: Take the peptide probe GOP-10, GPP-10, GPO-10 and GOO-10, and prepare 300 μM probe solutions respectively; Dilute each probe solution to 15 μM by 10 mM phosphate buffer, and store at 0° C. for later use. Take the probe solutions respectively, raise the temperature from 0° C. to 95° C. in a gradient, and detect the fluorescence intensity of the solutions at 525 nm during the temperature rise process to obtain the […]; Conduct the first derivative of the curve by corresponding the maximum value of the curve to the thermal change temperature of the probe.

[4] = tested on: denatured collagen in mouse intestinal tissue; test: Staining of collagen in intestinal tissue of mice by peptide probe; assay type: binding; conditions: 15 μM probe; for fluorescence staining ability, probe incubated at 0° C. before staining: FIG. 5a-d; for fluorescence staining ability, probe pretreated at 85° C. before staining: FIG. 5e-h
Protocol: Take the peptide probe GOP-10, GPP-10, GPO-10 and GOO-10, and prepare 300 μM probe solutions respectively; Take the intestinal tissue samples of mice paraffin embedding and slice to 4 μm; After washing and deparaffinating the slices, treat the intestinal tissue with ultrapure water at 85° C. for 10 minutes to denature collagen.

[5] = tested on: denatured collagen in sternum and tail tissue sections; test: Staining of denatured collagen in paraffin-embedded mouse sternum and frozen tail tissue sections; assay type: binding; conditions: general statement on the probes of the embodiments
Protocol: Take the peptide probe prepared in Embodiment 1-5 for staining experiment. Paraffin staining of sternum: Embed mouse sternum tissue sections by paraffin and bake at 75° C. for 2 h; After cooling, treat the tissue with xylene twice, each time for 10 min; Then treat the slice with ethanol of gradient concentration; Finally, use ultrapure water to wash the slices twice. After removing the paraffin, treat the sternum tissue with ultrapure water at 85° C. for 10 minutes to denature collagen. Add blocking solution to the tissue section, leave it for 30 min, then suck up the solution, stain with 100 μL and 15 μM of the above peptide probe solutions, and incubate at 4° C. for 4 h; After removing the staining solution, wash with 1×PBS for 3 times, and wash the unbound probe with the washing solution; Drop mount solution, add cover slide, observe and take photos with fluorescence microscope.
Staining of frozen tail tissue: Treat tail tissue with 1% sodium dodecyl sulfate for 24 hours to denature collagen, and prepare the frozen sections. Put the slices in cold methanol and fix them at −20° C. for 10 min. Wash the frozen sections twice with PBS, add blocking solution to the tissue section, leave it for 30 min, then suck up the solution, stain with 100 μL and 15 μM of the above peptide probe solutions, and incubate at 4° C. for 2 h; After removing the staining solution, wash with 1×PBS for 3 times, and wash the unbound probe with the washing solution; Drop mount solution, add cover slide, observe and take photos with fluorescence microscope.
Results: The staining results of paraffin-embedded sternum tissues of peptide probe GOP-4, GOP-6, GOP-8, GOP-10 and GOP-12 prepared in Embodiment 1-5 of the present invention are shown in FIG. 1a.

[6] = tested on: pathological collagen in mouse ear tissue; test: Staining of collagen in ear tissue of normal mice and diseased mice by peptide probe; assay type: binding; conditions: 15 μM probe
Protocol: Take the peptide probe GOP-10 and prepare 300 μM probe solutions;
Take mouse ear tissue samples for paraffin embedding and slice to 4 μm; After washing and deparaffinating the slice, treat part of the ear bone tissues with ultrapure water at 85° C. for 10 minutes to denature collagen, thus obtaining injured ear tissues; Untreated ear tissue is normal ear tissue. Add blocking solution to the tissue section, leave it for 30 min, then suck up the solution, stain with 100 μL and 15 μM of the above peptide probe solutions, and incubate at 4° C. for 4 h; After removing the staining solution, stain with 100 μL DAPI diluent for lmin and wash with 1×PBS for 3 times, and wash the unbound probe and excessive DAPI diluent with the washing solution; Drop mount solution, add cover slide, observe and take photos with fluorescence microscope;
The test results are shown in FIG. 6, in which the fluorescence detection results of injured mouse ear tissues are shown in FIG. 6a and normal mouse ear tissues are shown in FIG. 6b.

[7] = tested on: pathological collagen in human osteoarthritis tissue; test: Staining of pathological section of human arthritis; assay type: binding; conditions: 15 μM probe, 4° C. 4 h
Protocol: Take human osteoarthritis tissue for paraffin embedding, slice to 4 μm, carry out washing and deparaffinating, and then add with 0.5 mL blocking solution, and suck off the liquid after placing for 30 min. Stain with 100 μL, 15 μM peptide probe solution, and incubate at 4° C. for 4 h. After removing the staining solution, stain with 100 μL DAPI diluent for 1 min. Use 1×PBS to wash for 3 times, and wash the unbound probes and excess DAPI. Drop mount solution, add cover slide, observe and take photos with fluorescence microscope.
The staining results of pathological sections of fibrocartilage of human osteoarthritis are shown in FIG. 7, and the staining results of pathological sections of hyaline cartilage of human osteoarthritis are shown in FIG. 8. […] Therefore, the peptide probe GOP-10 prepared by the invention can be used for detecting pathological collagen in human osteoarthritis fibrocartilage and osteoarthritis hyaline cartilage.

Substance | change of fluorescence intensity between 85° C. water bath and 0° C. ice bath [1] | conformational state (colour of solution) at 0° C. [2] | conformational state (colour of solution) after heating [2] | fluorescence intensity in the range of 0-95° C. [3] | thermal transformation temperature [3] [°C] | fluorescence staining ability, probe incubated at 0° C. before staining [4] | fluorescence staining ability, probe pretreated at 85° C. before staining [4] | binding to pathological collagen [5] | fluorescence staining of injured mouse ear tissue ([6]; collagen denatured at 85° C. for 10 min, FIG. 6a) | fluorescence staining of normal mouse ear tissue ([6]; untreated ear tissue, FIG. 6b) | staining of pathological section of fibrocartilage of human osteoarthritis ([7]; FIG. 7) | staining of pathological section of hyaline cartilage of human osteoarthritis ([7]; FIG. 8)
FAM-Ahx-(GPO)10-NH2 [GPO-10] | changed significantly | trimer state (orange) | single-stranded conformation (green) | increased significantly | 63 | no fluorescence staining ability | can be fluorescently stained |  |  |  |  | 
FAM-Ahx-(GOO)10-NH2 [GOO-10] | changed significantly | trimer state (orange) | single-stranded conformation (green) | increased significantly | 69 | no fluorescence staining ability | can be fluorescently stained |  |  |  |  | 
FAM-Ahx-(GPP)10-NH2 [GPP-10] | changed significantly | trimer state (orange) | single-stranded conformation (green) | increased significantly | 39 | no fluorescence staining ability | can be fluorescently stained |  |  |  |  | 
FAM-Ahx-(GOP)12-NH2 [GOP-12] |  |  |  |  |  |  |  | can specifically bind to pathological collagen |  |  |  | 
FAM-Ahx-(GOP)8-NH2 [GOP-8] |  |  |  |  |  |  |  | can specifically bind to pathological collagen |  |  |  | 
FAM-Ahx-(GOP)10-NH2 [GOP-10] | does not change | stable single-stranded conformation (green) | single-stranded state (green) | does not change |  | good fluorescence staining ability | good fluorescence staining ability | can specifically bind to pathological collagen | stained green | no green fluorescence | can specifically bind to pathological collagen | can specifically bind to pathological collagen
